# Results taken from patent US9834808B2, “Methods for rapid antibiotic susceptibility testing” (SeLux Diagnostics, Inc., priority 2016, dated 2017).
# Columns and labels:
# [1] = system: clinical S. aureus strain; test: CLSI overnight method MIC; settings: Staphylococcus aureus
# [2] = system: S. aureus (QC strain 29213); test: standard CLSI reference method MIC (fast-AST MICs stated to be similar); assay type: cell-based, Staphylococcus aureus
# Procedure: Microorganism detection is then performed visually.
# S. aureus (QC strain 29213) was cultured under standard sterile conditions in Mueller-Hinton (MH) broth overnight at 37° C. with shaking.
# The microplates, each well containing 100 μL, were inoculated with the prepared antimicrobial dilutions and incubated at 37° C. for 3 hours, 45 minutes for determination using the present invention (the “fast-AST” technique). The “fast-AST” microplates were removed from the shaking incubator after 3 hours, 45 minutes and centrifuged for 2.5 minutes at 2500×g in order to pellet. The MH broth was then aspirated and 100 μL of 25 mM PBS was added to each well of both microplates. Then, 10 µL of the chemical moiety (here, Europium-Cryptate formulation) was added to each well (to 20 ng/well) and 10 μL of 0.005% Glutaraldehyde (as the signaling agent) was added to each well. The two microplates were then shaken at 300 rpm for 30 minutes. After, both plates were centrifuged for 2.5 minutes at 2500×g to pellet. The solution was aspirated and a wash of 200 μL PBS-tween was added to each well, followed by a centrifugation to pellet. After aspiration of solution, a second identical wash of 200 μL PBS-tween occurred, followed by a final centrifugation to pellet. 200 μL PBS-tween was added to each well. The plate was then read using time resolved fluorescence on a BioTek H1 plate reader.
# [3] = system: Pseudomonas aeruginosa (ATCC strain 27853); test: fast-AST MIC determination (HRP-conjugated anti-P. aeruginosa antibody signaling agent); assay type: cell-based; settings: ATCC27853, 3.5 hours incubation, susceptible strain, FIG. 6, FIG. 7
# Procedure: (§1) Similarly, a culture of Pseudomonas aeruginosa (ATCC strain 27853) was grown using MH broth overnight at 37° C. with vigorous shaking. […] The data shown in FIG. 6 depicts from the 5 minute point after the start of incubation with detection solution. […] The MIC determined by both techniques is the same: 4 μg/ml.
# (§2) The MIC for the resistant P. aeruginosa strain, ATCC BAA-2108, was determined similarly. The same 96-well microplate was used for both strains, with 48 wells dedicated to each strain.
# [4] = system: resistant P. aeruginosa strain, ATCC BAA-2108; test: fast-AST MIC determination, resistant strain; assay type: cell-based; settings: Pseudomonas aeruginosa, ATCCBAA2108, FIG. 7
# Procedure: as §1, §2
# [5] = system: Escherichia coli (QC strain, ATCC 25922) and clinical resistant E. coli ("Clinical"); test: fast-AST with Europium-Cryptate/glutaraldehyde, QC strain compared with clinical strain; assay type: cell-based; settings: 3 hours 45 minutes incubation, FIG. 16 to FIG. 23
# Procedure: (§3) Both Escherichia coli (QC strain, ATCC 25922) and clinical resistant E. coli (“Clinical”) were cultured under standard sterile conditions in Mueller-Hinton (MH) broth overnight at 37° C. with shaking. The E. coli concentration from the overnight culture was then set to 5×10^5 CFU/ml using the McFarland standard technique for optical density readings at 600 nm. Concurrently, two sterile 96-well microplates were prepared with serial dilutions of a specified antimicrobial (see below) and a no-antimicrobial (saline) control, all in MH broth. The microplates, each well containing 200 μL, were inoculated with the prepared antimicrobial dilutions and incubated at 37° C. for 3 hours, 45 minutes for determination using the present invention (the “fast-AST” technique). The “fast-AST” microplates were removed from the shaking incubator after 3 hours, 45 minutes and centrifuged for 2.5 minutes at 2500 g in order to pellet. The MH broth was then aspirated and 100 μL of water was added to each well of both microplates. Then, 10 μL of the chemical moiety (here, Europium-Cryptate formulation) was added to each well (to 20 ng/well) and 10 μL of 5% Glutaraldehyde (as the signaling agent) was added to each well. The two microplates were then shaken at 300 rpm for 30 minutes. […] The plate was then read using time resolved fluorescence on a BioTek H1 plate reader.
# [6] = system: Escherichia coli (ATCC 11303); test: fluorescent nanoparticle signaling agent assay (free signaling agents in filtrate); assay type: cell-based
# Procedure: (§4) Both Escherichia coli (ATCC 11303) and ampicillin-resistant E. coli (ATCC 39936) were cultured under standard sterile conditions in LB broth at 37° C. Concentrations were determined by measuring absorbance at 600 nm (McFarland), and a concentration of 5×10^5 CFU/ml was set by dilution. Ampicillin was then weighed into sterile water and added in appropriate concentrations to sterile 3 mL microfuge tubes. Bacteria and nanoparticles at a concentration of 8×10^8 nanoparticles/ml were both added to these ampicillin-coated sterile microfuge tubes. The tubes were then capped and placed at 37° C. for 1.5 hours with continuous shaking, after which they were opened and each was passed through a 0.2 μm filter. Next, 100 μL of each filtrate was added to a well of a 96-well plate and 150 μL of a development solution (5% tetramethylammonium hydroxide in ethanol) was added to each well. After 5 minutes the plate was read at 490 nm excitation/530 nm emission in a SpectraMax M2 microplate reader (Molecular Devices).
# (§5) An assay for free signaling agents, which are not associated with intact bacteria, was performed after intact bacteria were removed by filtration through a 0.2 μm filter.
# [7] = system: clinical resistant E. coli ("Clinical"); test: fast-AST with Europium-Cryptate/glutaraldehyde, clinical strain; assay type: cell-based, Escherichia coli; settings: 3 hours 45 minutes incubation, FIG. 17, FIG. 21
# Procedure: as §3
# [8] = system: ampicillin-resistant E. coli (ATCC 39936); test: fluorescent nanoparticle signaling agent assay (free signaling agents in filtrate); assay type: cell-based, Escherichia coli; settings: 100 μg/ml ampicillin, 1.5 hours, 0.2 μm filtrate; FIG. 41
# Procedure: as §4, §5
# [9] = system: Pseudomonas aeruginosa (ATCC strain 27853); test: standard overnight growth, OD600 control MIC determination; assay type: cell-based; settings: ATCC27853, overnight (>12 hours) incubation, FIG. 6
# Procedure: as §1
# [10] = standard CLSI reference method, fast-AST MICs similar, FIG. 24 to FIG. 26
molecule,measurement,setting,value
CN[C@H](CC(C)C)C(=O)N[C@H]1C(=O)N[C@@H](CC(N)=O)C(=O)N[C@H]2C(=O)N[C@H]3C(=O)N[C@H](C(=O)N[C@H](C(=O)O)c4cc(O)cc(O)c4-c4cc3ccc4O)[C@H](O)c3ccc(c(Cl)c3)Oc3cc2cc(c3O[C@@H]2O[C@H](CO)[C@@H](O)[C@H](O)[C@H]2O[C@H]2C[C@](C)(N)[C@H](O)[C@H](C)O2)Oc2ccc(cc2Cl)[C@H]1O [Vancomycin],MIC,[1],8 µg/mL
same,MIC,[2]; Staphylococcus aureus,0.5 to 2 µg/mL
C[C@@H](O)[C@H]1C(=O)N2C(C(=O)O)=C(SCCN=CN)C[C@H]12 [imipenem],MIC,[3],2 µg/mL
same,MIC,[4],32 µg/mL
CC1(C)S[C@@H]2[C@H](NC(=O)[C@H](N)c3ccccc3)C(=O)N2[C@H]1C(=O)O [ampicillin],MICs of QC strain compared with clinical resistant strain,[5],dissimilar MICs
same,fluorescent signal of free signaling agent,"[6]; 100 μg/ml ampicillin, 1.5 hours, 0.2 μm filtrate, FIG. 41",significant increase in fluorescence
same,MIC,"[6]; Escherichia coli, ATCC11303, varying ampicillin concentrations, fluorescent nanoparticle assay, FIG. 42",~15 µg/mL
same,susceptibility call of the clinical strain,[7],resistant
same,fluorescent signal of free signaling agent,[8],low fluorescent signals
Penicillin,MIC,[2]; [10],0.25 to 2 µg/mL
CC(C)(O/N=C(\C(=O)N[C@@H]1C(=O)N2C(C(=O)[O-])=C(C[n+]3ccccc3)CS[C@H]12)c1csc(N)n1)C(=O)O [ceftazidime],MIC,[3],4 µg/mL
same,MIC,[9],4 µg/mL
Teicoplanin,MIC,[2]; [10],0.25 to 1 µg/mL
